Results as given in patent US8217063B2, “Lactam-substituted dicarboxylic acids and use thereof” (Bayer Intellectual Property GmbH, priority 2007, dated 2012).

Assays:
saphenous artery = assay: Vasorelaxant effect in vitro (phenylephrine-contracted artery rings); set-up: species or system Rabbits; settings: Oryctolagus cuniculus; rabbit saphenous artery rings, contraction induced by phenylephrine
Protocol: B-1. Vasorelaxant Effect In Vitro:
Rabbits are anesthetized and sacrificed by intravenous injection of thiopental sodium (about 50 mg/kg) and exsanguinated. The saphenous artery is removed and divided into rings 3 mm wide. The rings are mounted singly on in each case a pair of triangular hooks open at the end and made of 0.3 mm-thick special wire (Remanium®). Each ring is placed under an initial tension in 5 ml organ baths with Krebs-Henseleit solution which is at 37° C., is gassed with carbogen and has the following composition: NaCl 119 mM; KCl 4.8 mM; CaCl2×2H2O 1 mM; MgSO4×7H2O 1.4 mM; KH2PO4 1.2 mM; NaHCO3 25 mM; glucose 10 mM; bovine serum albumin 0.001%. The force of contraction is detected with Statham UC2 cells, amplified and digitized via A/D converters (DAS-1802 HC, Keithley Instruments, Munich) and recorded in parallel on chart recorders. Contractions are induced by addition of phenylephrine.
After several (generally 4) control cycles, the substance to be investigated is added in each further run in increasing dosage, and the height of the contraction achieved under the influence of the test substance is compared with the height of the contraction reached in the last preceding run. The concentration necessary to reduce the contraction reached in the preceding control by 50% is calculated from this (IC50). The standard application volume is 5 μl. The proportion of DMSO in the bath solution corresponds to 0.1%.

Heme-containing sGC = biological target: T1, Heme-containing sGC (Rattus norvegicus, UniProt P20595); assay: Stimulation of recombinant soluble guanylate cyclase (sGC) in vitro, heme-containing enzyme; assay type: biochemical
T1 construct: made in house; host or cells: baculovirus/Sf9
T1 sequence (P20595 1-619): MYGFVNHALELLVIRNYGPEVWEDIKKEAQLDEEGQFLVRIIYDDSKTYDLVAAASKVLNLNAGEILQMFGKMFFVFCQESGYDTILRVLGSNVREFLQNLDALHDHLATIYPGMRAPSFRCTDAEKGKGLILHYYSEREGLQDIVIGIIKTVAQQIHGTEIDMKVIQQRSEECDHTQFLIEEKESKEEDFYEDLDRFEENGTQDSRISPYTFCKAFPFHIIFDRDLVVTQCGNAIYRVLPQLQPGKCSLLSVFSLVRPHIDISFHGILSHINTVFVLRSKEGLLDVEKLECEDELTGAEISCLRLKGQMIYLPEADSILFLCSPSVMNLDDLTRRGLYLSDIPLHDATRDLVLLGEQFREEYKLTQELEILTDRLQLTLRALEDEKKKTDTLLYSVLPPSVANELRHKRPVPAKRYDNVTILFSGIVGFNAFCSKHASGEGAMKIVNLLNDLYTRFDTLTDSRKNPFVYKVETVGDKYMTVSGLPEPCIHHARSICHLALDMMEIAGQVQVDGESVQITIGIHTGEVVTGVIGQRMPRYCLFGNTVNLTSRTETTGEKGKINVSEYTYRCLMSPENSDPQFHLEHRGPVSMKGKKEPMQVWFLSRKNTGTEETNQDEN
T1 sequence (P19686 1-690 partner): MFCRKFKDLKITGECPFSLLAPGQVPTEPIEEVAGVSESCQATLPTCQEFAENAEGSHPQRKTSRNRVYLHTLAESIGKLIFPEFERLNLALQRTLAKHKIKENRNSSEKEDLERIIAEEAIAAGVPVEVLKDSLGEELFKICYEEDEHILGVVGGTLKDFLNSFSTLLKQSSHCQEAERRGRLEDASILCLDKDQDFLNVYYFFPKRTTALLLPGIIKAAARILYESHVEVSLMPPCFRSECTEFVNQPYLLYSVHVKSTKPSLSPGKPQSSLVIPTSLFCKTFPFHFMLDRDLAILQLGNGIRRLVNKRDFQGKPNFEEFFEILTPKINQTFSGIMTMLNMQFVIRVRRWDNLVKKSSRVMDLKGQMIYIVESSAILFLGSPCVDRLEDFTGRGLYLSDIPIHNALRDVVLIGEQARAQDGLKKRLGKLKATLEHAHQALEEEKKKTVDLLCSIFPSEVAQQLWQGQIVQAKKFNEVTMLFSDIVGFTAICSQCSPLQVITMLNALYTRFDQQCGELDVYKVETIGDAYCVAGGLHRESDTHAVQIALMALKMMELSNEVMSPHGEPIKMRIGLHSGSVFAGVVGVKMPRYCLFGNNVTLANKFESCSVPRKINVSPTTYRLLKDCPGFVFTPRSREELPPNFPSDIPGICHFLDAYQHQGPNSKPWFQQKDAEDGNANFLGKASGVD
Source text: (§1) B-2. Stimulation of Recombinant Soluble Guanylate Cyclase (sGC) In Vitro:
Hoenicka, E. M. Becker, H. Apeler, T. Sirichoke, H. Schroeder, R. Gerzer and J.-P. Stasch, “Purified soluble guanylyl cyclase expressed in a baculovirus/Sf9 system: Stimulation by YC-1, nitric oxide, and carbon oxide”, J. Mol. Med. 77 (1999), 14-23. The heme-free guanylate cyclase is obtained by adding Tween 20 to the sample buffer (0.5% in the final concentration).
(§2) The activation of sGC by a test substance is reported as n-fold stimulation of the basal activity.

Heme-free sGC = biological target: T2, Heme-free sGC (Rattus norvegicus, UniProt P20595); assay: Stimulation of recombinant soluble guanylate cyclase (sGC) in vitro, heme-free enzyme; assay type: biochemical; settings: heme-free sGC (0.5% Tween 20)
T2 construct: made in house; host or cells: baculovirus/Sf9
T2 sequence (P20595 1-619): T1 sequence (P20595 1-619)
T2 sequence (P19686 1-690 partner): T1 sequence (P19686 1-690 partner)
Protocol: as §1
Investigations on the stimulation of recombinant soluble guanylate cyclase (sGC) by the compounds according to the invention with and without sodium nitroprusside, and with and without the heme-dependent sGC inhibitor 1H-1,2,4-oxadiazole-(4,3a)-quinoxalin-1-one (ODQ) are carried out by the method described in detail in the following reference: M. Hoenicka, E. M. Becker, H. Apeler, T. Sirichoke, H. Schroeder, R. Gerzer and J.-P. Stasch, “Purified soluble guanylyl cyclase expressed in a baculovirus/Sf9 system: Stimulation by YC-1, nitric oxide, and […]”, J. Mol. Med. 77 (1999), 14-23. The heme-free guanylate cyclase is obtained by adding Tween 20 to the sample buffer (0.5% in the final concentration).
as §2

[1] = biological target: T3, recombinant guanylate cyclase reporter cell line (Rattus norvegicus, UniProt P20595); assay: sGC-activating activity in the CHO reporter cell in vitro; assay type: cell-based
T3 construct: expressed in transfected cells; host or cells: CHO
T3 sequence (P20595 1-619): T1 sequence (P20595 1-619)
T3 sequence (P19686 1-690 partner): T1 sequence (P19686 1-690 partner)
Protocol: B-3. Action at Recombinant Guanylate Cyclase Reporter Cell Lines
The cellular action of the compounds according to the invention is determined using a recombinant guanylate cyclase reporter cell line, as described in F. Wunder et al., Anal. Biochem. 339, 104-112 (2005).

## O=C(O)c1ccc(CCC(/C=C/c2ccccc2OCCCN2CCCC2=O)Cc2ccc(C(=O)O)cc2)cc1 (single isomer, unassigned) [Example 3, 4-[(4E)-3-(4-Carboxybenzyl)-5-{2-[3-(2-oxopyrrolidin-1-yl)propoxy]phenyl}pent-4-en-1-yl]-benzoic acid]
Saphenous artery
  IC50: 52 nM
Heme-containing sGC; 0.01 μM Example 3
  Stimulation (n-fold) of sGC, +0.1 μM DEA/NO: 23.3 n-fold
  Stimulation (n-fold) of sGC, +10 μM ODQ: 35.1 n-fold
  Stimulation (n-fold) of sGC, Basal: 6.1 n-fold
Heme-containing sGC; 0.1 μM Example 3
  Stimulation (n-fold) of sGC, +0.1 μM DEA/NO: 34.7 n-fold
  Stimulation (n-fold) of sGC, +10 μM ODQ: 98.0 n-fold
  Stimulation (n-fold) of sGC, Basal: 11.6 n-fold
Heme-containing sGC; 1 μM Example 3
  Stimulation (n-fold) of sGC, +0.1 μM DEA/NO: 41.6 n-fold
  Stimulation (n-fold) of sGC, +10 μM ODQ: 124 n-fold
  Stimulation (n-fold) of sGC, Basal: 16.0 n-fold
Heme-containing sGC; 10 μM Example 3
  Stimulation (n-fold) of sGC, +0.1 μM DEA/NO: 40.0 n-fold
  Stimulation (n-fold) of sGC, +10 μM ODQ: 134 n-fold
  Stimulation (n-fold) of sGC, Basal: 18.9 n-fold
Heme-containing sGC; combination with DEA/NO
  Synergy with the NO donor DEA/NO on sGC: no synergistic effect
Heme-free sGC; 0.01 μM Example 3
  Stimulation (n-fold) of heme-free sGC, Basal: 9.9 n-fold
Heme-free sGC; 0.1 μM Example 3
  Stimulation (n-fold) of heme-free sGC, Basal: 35.2 n-fold
Heme-free sGC; 1 μM Example 3
  Stimulation (n-fold) of heme-free sGC, Basal: 69.7 n-fold
Heme-free sGC; 10 μM Example 3
  Stimulation (n-fold) of heme-free sGC, Basal: 74.6 n-fold
[1]
  MEC (minimum effective concentration): 1 nM
